The source made the active and inactive calls. How the calls were made is not given here.
Target: Induced myeloid leukemia cell differentiation protein Mcl-1 (Homo sapiens) (UniProt Q07820)
Experiment: modulators of Bim peptide binding to Mcl-1, dose response, biochemical, bead-based flow cytometry, multiplexed, human (AID 1329)
Details: Bim peptide-Mcl-1 binding, MCF

Chain of Induced myeloid leukemia cell differentiation protein Mcl-1 (Homo sapiens) (Q07820 whole entry, looked up): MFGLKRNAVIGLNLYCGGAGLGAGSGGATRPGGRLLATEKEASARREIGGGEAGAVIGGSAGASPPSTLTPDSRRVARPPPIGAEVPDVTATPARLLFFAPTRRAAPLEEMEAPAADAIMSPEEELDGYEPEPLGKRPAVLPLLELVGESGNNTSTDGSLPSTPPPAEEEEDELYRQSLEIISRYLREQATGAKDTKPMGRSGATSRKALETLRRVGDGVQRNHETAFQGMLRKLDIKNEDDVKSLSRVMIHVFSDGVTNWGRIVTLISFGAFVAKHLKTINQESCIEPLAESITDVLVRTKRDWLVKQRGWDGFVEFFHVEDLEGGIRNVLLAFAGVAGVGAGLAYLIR

percent span	SMILES
inactive	Cc1ccc(C)c(Oc2ncnc(N)c2[N+](=O)[O-])c1
inactive	Cc1ccc(-c2cc(C(=O)OCC(=O)N(C)C3CCS(=O)(=O)C3)c3ccccc3n2)o1 (configuration not stated)
inactive	NCC(c1ccccc1)c1c[nH]c2ccccc12 (configuration not stated)
inactive	Cc1nnc(NCc2n[nH]c(=O)c3ccccc23)c2ccccc12
inactive	Cc1cccc(-n2c(-c3ccncc3)n[nH]c2=S)c1
inactive	CCCCOc1ccc(Cc2c(Cl)nc(SC)nc2N2CCOCC2)cc1
inactive	CN1C2C=C3C(C#N)=C(N)C(C#N)(C#N)[C@@H](c4ccsc4)[C@@H]3C1CC2 (some centres not stated)
inactive	CCn1c(C)nc2cc(C(=O)N/N=C/c3ccc(O)c(O)c3O)ccc21
inactive	CC1CCN(C2(O)C(=O)Nc3ccc(Br)cc32)CC1 (configuration not stated)
inactive	Cc1cc(C)c2nc3nc(C)c(C)cc3c(N)c2c1
inactive	Cc1ccc(/C=C/C(=O)c2ccccc(=O)c2O)c(C)c1
inactive	Cc1nn(-c2ccc(Cl)c(Cl)c2)c(C)c1C(=O)O
inactive	O=[N+]([O-])c1ccc(-c2cn(-c3ccc(Cl)cc3)c(=S)[nH]2)cc1
inactive	O=C(CNC(=O)c1ccco1)NCC(=O)OCc1ccccc1Br
inactive	O=C(NCCO)c1ccc2nc(-c3ccco3)c(-c3ccco3)nc2c1
inactive	CCc1ccc(NC(=O)Cc2ccc(OC)cc2)cc1
inactive	CCCn1c(N2CCN(C)CC2)nc2c1c(=O)[nH]c(=O)n2C
inactive	CC(=O)c1ccc(NC(=O)c2ccc3nc(-c4ccco4)c(-c4ccco4)nc3c2)cc1
inactive	c1csc(C2=Nn3c(nnc3-c3ccncc3)SC2)c1
inactive	CC(C)CNC(=O)c1cccc(NC(=O)c2ccc(Cl)c([N+](=O)[O-])c2)c1
inactive	O=C(Nc1n[nH]c(C(F)(F)F)n1)C1CC1

percent span	SMILES
inactive	CCNC(=S)Nc1cc(OCC)c(NC(=O)c2cccs2)cc1OCC
inactive	O=C1C(=O)c2ccc(-c3ccccc3)cc2-c2ccccc21
inactive	CCn1c(SCC(=O)Nc2ccc(C)cc2)nnc1-c1ccc(O)cc1
inactive	CC(C)COC(=O)/C(C#N)=C/c1cn(Cc2ccccc2)c2ccccc12
inactive	Cc1cc(N2CCN(C)CC2)nc2ccc(NC(=S)N3CCN(c4ccc(F)cc4)CC3)cc12
inactive	Cc1ccc(-c2c3c([nH]c(=S)c2C#N)CCCC3)o1
inactive	Cc1cc(NC(=O)CCCC(=O)N(CC(=O)NC2CCCCC2)c2ccccc2)no1
inactive	COc1ccc(OC)c(-n2c(-c3ccc(C)cc3)n[nH]c2=S)c1
inactive	CNc1nc2ccccc2n1/N=C/c1cccc(OC)c1OC
inactive	CCOC(=O)C1(CC/C(C)=N\NC(N)=O)CC(C)(C)OC1=O (configuration not stated)
inactive	Cc1ccc(Nc2nc(-c3c(C)nc4ncccn34)cs2)cc1
inactive	COc1ccccc1N(C)S(=O)(=O)c1ccc(C(=O)OCC(N)=O)cc1
inactive	CC(C(=O)Nc1cc([N+](=O)[O-])ccc1Cl)N1CCN(c2ccc(O)cc2)CC1 (configuration not stated)
inactive	Cc1cc(NC(=O)CCSc2ccccc2)ccc1Br
inactive	O=C(NC1=C(NC2CCS(=O)(=O)C2)C(=O)c2ccccc2C1=O)c1ccccc1 (configuration not stated)
inactive	COc1ccc(NC(=O)c2c(F)cccc2F)cc1S(=O)(=O)Nc1ccc(Br)cc1
inactive	Nc1ccc(N2CCN(CCCCN3C(=O)C4CCCN4C3=O)CC2)cc1 (configuration not stated)
inactive	O=C(c1ccc(CNS(=O)(=O)c2ccc(Br)cc2)cc1)N1CCCC1
inactive	CCN(CC)c1nc(N)nc(N(c2ccccc2)c2ccccc2)n1
inactive	O=C(COc1ccccc1)N1CCN(c2ncnc3c2cnn3-c2ccccc2)CC1
inactive	COc1ccc(C2=Nc3cccc4cccc(c34)N2)cc1

Reference: PubChem BioAssay AID1329 (NMMLSC, 2008)
